From patent US20130150430A1, “Methods for Impairing the P53/HDM2 Auto-Regulatory Loop in Multiple Myeloma Development Using mIR-192, mIR-194 and mIR-215” (THE OHIO STATE UNIVERSITY, priority 2011, published 2013)

Assays:
Type in all cases: cell-based, human
MM1s and NCI-H929 cells = assay: Cell cycle analysis by flow cytometry; details: 48 hr of transfection after nocodazole synchronization; scrambled-transfected ~30%
Method: FIG. 3G, FIG. 3H, FIG. 31, FIG. 3J: Flow cytometry analysis in MM1s (FIG. 3G), NCI-H929 (FIG. 3H) and KMS28BM (FIG. 31) cells (miR-192, miR-194, miR-215 and Scr transfected) at 48 hr of transfection, after first being arrested and synchronized in G2/M phase by Nocodazole for 16 hr. Apoptosis in KMS28BM was evaluated by caspase-3 activity (FIG. 3J). All experiments were performed in triplicate ±SD.
Nocodazole was (Sigma-Aldrich) was dissolved in DMSO as a stock solution of 10 mg/ml for cell cycle arrest in G2/M phase. Cells were first arrested and synchronized in G2/M phase by growth in 80 nM nocodazole for 16 hr. Cells were then washed and fresh medium added. After 6 hr, cell cycle analysis was performed by propidium iodide staining. Corresponding amounts of DMSO alone were added in control experiments. […] For DNA content analysis, cells were fixed in methanol at −20° C., washed again, rehydrated, re-suspended in PBS containing 50 μg/ml propidium iodide (PI) and 50 μg/ml RNase A, and analyzed by flow cytometry (Becton Dickinson). […] After the treatment the cells were analyzed using Caspase-Glo 3 Assay kit (Promega) according to the manufacturer's instructions. Continuous variables were expressed as mean values ± standard deviation (s.d.).

[1] = test system: MDM2 mRNA in MM1s and NCI-H929 cells; assay: RT-PCR of MDM2 mRNA after miRNA transfection and Nutlin-3a; details: transfected cells at 6 and 12 hr of Nutlin-3a treatment, both cell lines
Method: FIG. 4F: MDM2 mRNA expression normalized for GAPDH mRNA expression in MM1s and NCIH929 cells miRNAs or Scr transfected after Nutlin-3a treatment (6-12 hr).
RNA was isolated from cell lines using Trizol reagent (Invitrogen) as per the manufacturer's protocol. An aliquot of 5 μg RNA was then used for cDNA synthesis using the SuperScript first strand cDNA synthesis kit (Invitrogen). RT-PCRs were carried out using ABI Prism 7900HT sequence detection systems with Applied Biosystems TaqMan Gene expression assays (p21 (CDKN1A):Hs01121172_ml; MYC:Hs99999003_ml; TP53:Hs00153349_ml; MDM2: Hs01066938_ml).

HDM2 3′UTR = assay: Luciferase reporter assay, pGL3-MDM2-3'UTR; details: MM1s cells, construct containing all MREs
Method: FIG. 4G: miRNAs predicted to interact with HDM2 gene in several consensus binding sites (x) at its 3′-UTR, according to “in silico” RNA-22 prediction software. Luciferase assay showing decreased luciferase activity in cells co-transfected with pGL3-MDM2-3′UTR and miR-192, miR-194, miR-215 and Scr sequence. See also FIG. 18. All experiments were performed in triplicate ±SD.
To verify that HDM2 is a direct target of miR-192, miR-194 and miR-215, HDM2 3′UTR containing all MREs (˜4K), was cloned into pGL3 basic construct downstream of the luciferase open reading frame (FIG. 4D). This reporter construct was used to transfect the highly transfectable MM1s cells that express the endogenous miRs following up-modulated p53 expression.
MM1s cells were cotransfected with 1 μg of pGL3 firefly luciferase reporter vector, 0.1 μg of the phRL-SV40 control vector (Promega), and 100 nM miRNA precursors (Ambion) using nucleoporation (LONZA) Cell Line Nucleofector Kit V. Firefly and Renilla luciferase activities were measured consecutively by using the Dual Luciferase Assay (Promega) 24 hr after transfection. Each reporter plasmid was transfected at least twice (on different days) and each sample was assayed in triplicate. […]

MM1s cells = assay: Caspase-3 activation assay with MI-219 in miRNA-transfected cells; details: MI-219 in presence of the miRNA; p<0.001
Method: FIG. 5C: Apoptotic effect at different concentrations and time points for each miRNA transfected cells was assessed by caspase-3 activation assay.
Nocodazole was (Sigma-Aldrich) was dissolved in DMSO as a stock solution of 10 mg/ml for cell cycle arrest in G2/M phase. Cells were first arrested and synchronized in G2/M phase by growth in 80 nM nocodazole for 16 hr. Cells were then washed and fresh medium added. After 6 hr, cell cycle analysis was performed by propidium iodide staining. Corresponding amounts of DMSO alone were added in control experiments. In experiments involving transfection and MI-219 treatment, the cells were first transfected, incubated for 24 hr, and then treated with the chemotherapeutic drug for 24 hr. For DNA content analysis, cells were fixed in methanol at −20° C., washed again, rehydrated, re-suspended in PBS containing 50 μg/ml propidium iodide (PI) and 50 μg/ml RNase A, and analyzed by flow cytometry (Becton Dickinson). For detection of caspase 3 activity, KMS28BM and MM1s cells were cultured in 96-well plates and treated with Nutlin-3a. After the treatment the cells were analyzed using Caspase-Glo 3 Assay kit (Promega) according to the manufacturer's instructions. Continuous variables were expressed as mean values ± standard deviation (s.d.).

[2] = test system: NCI-H929 and RPMI-8226 IGF-1 treated cells; assay: Intra-epithelial trans-well migration assay with IGF-1 as attractant; details: ectopic expression, vs Scr control
Excerpt: FIG. 7B: Intra-epithelial migration assay in MM cells miRNAs transfected using HS-5 cells at different concentrations of IGF-1 as attractant. Bars indicate relative fold change of migration compared with the control ±SD.
FIG. 21C: Intra-epithelial migration assay in MM1s and RPMI-8226 cells (pre-miRNA-192, -194, -215, Scr-transfected) using HS-27A stromal cell as cellular layer at different concentrations of IGF-1 as attractant. Bars indicate relative fold change of migration compared with the control. All experiments were performed in triplicate.
To this end, the inventors used intra-epithelial trans-well migration assay with IGF-1 at various concentrations as attractant and two bone marrow-derived stromal cells, HS-5 (fibroblast-like) and HS-27A (epithelial-like) as cell layer.
IGF-I-induced MM transendothelial migration was determined using 24 well, 6.5 mm internal diameter transwell cluster plates with polycarbonate membranes ([…] pore size) separating the 2 chambers (Corning Costar, Cambridge, Mass.). Bone marrow stromal cell lines HS-5 and HS-27A were grown on the insert for 24 hrs to produce a confluent monolayer. […] At the end of the incubation period, cells migrating through endothelial or bone marrow stromal cell layers into the lower chamber were harvested, stained with trypan blue, and counted under a microscope.

Substance | cells in G0/G1 arrest (MM1s and NCI-H929 cells) [%] | MDM2 mRNA levels [1] | luciferase expression of HDM2 3′UTR reporter (HDM2 3′UTR) | caspase-3 activation induced by MI-219 (MM1s cells) | migration and tissue invasion [2]
miR-215: microRNA, p53-activated, down-regulated in MM; transfected as miRNA precursor (Ambion) or lentivector; SEQ ID NO:58 (AUGACCUAUGAAUUGACAGAC; listed as RNA, chemistry not given here; listed as Homo sapiens) | ~60 | strongly reduced | significantly diminished | higher caspase-3 activation | significant decrease
miR-192: microRNA, p53-activated, down-regulated in MM; transfected as miRNA precursor (Ambion) or lentivector; SEQ ID NO:56 (CUGACCUAUGAAUUGACAGCC; listed as RNA, chemistry not given here; listed as Homo sapiens) | ~60 | strongly reduced | significantly diminished | higher caspase-3 activation | significant decrease
